Test system: biochemically recurrent prostate cancer
Test: CONDOR: 18F-DCFPyL PET/CT correct localization rate, detection rate and PPV vs composite standard of truth
Assay type: in vivo, men
Excerpt: 1. Correct Localization Rate (CLR), defined as percentage of subjects with a one-to-one correspondence between localization of at least one lesion identified on ^18F-DCFPyL PET/CT imaging and the composite truth standard, defined as either evaluable histopathology, informative correlative imaging, or PSA response after radiation therapy.
Men ≥18 years of age with a rising PSA after definitive PCa therapy and negative or equivocal imaging were enrolled. […] The primary endpoint of this study was the correct localization rate (CLR). CLR is defined as the percentage of patients with a one-to-one correspondence between localization of at least one lesion identified by ^18F-DCFPyL PET/CT and a composite standard of truth (SOT). SOT was determined by two central readers and included either histopathology or another standard imaging modality (i.e., fluciclovine-PET/CT, CT/MRI, bone scan) or alternatively, by a post-treatment PSA change for irradiated lesions.
Methods: Men ≥18 years—with rising PSA after definitive therapy and negative or equivocal standard of care imaging (e.g., CT/MRI, bone scintigraphy) were enrolled. A single 9 mCi (333 MBq)±20% dose of PyL was injected, followed by PET/CT 1-2 hours later. Primary endpoint was correct localization rate (CLR), defined as percentage of pts with a 1:1 correspondence between at least one lesion identified by PyL-PET/CT and the composite standard of truth: pathology, correlative imaging, or PSA response. […] The secondary endpoint, impact of PyL-PET/CT on clinical management of pts was based on the treating physician's documented clinical plans before and after PyL-PET/CT.
Men with a PSA ≥0.2 ng/mL after surgery or ≥2 ng/mL above the nadir after radiation therapy were eligible for enrollment. The primary endpoint was the correct localization rate (CLR) defined as positive predictive value with an additional requirement of anatomical lesion colocalization between ^18F-DCFPyL-PET/CT and a composite standard of truth (SOT). The SOT consisted of, in descending priority: 1) histopathology, 2) correlative imaging findings determined by two central readers, or 3) post-radiation PSA response. […] The impact of ^18F-DCFPyL-PET/CT as defined by change in management intent, and safety were evaluated as secondary endpoints.
Patients voided prior to imaging, and PET and non-contrast CT images were acquired from the mid-thigh through the skull vertex. All ^18F-DCFPyL-PET/CT scans were submitted to the central imaging core laboratory for assessment. Patients with positive ^18F-DCFPyL-PET/CT scans based on local interpretation were scheduled for post-^18F-DCFPyL-PET/CT follow-up to verify suspected lesion(s) based on a composite standard of truth (SOT). (FIG. 16)
Because of the expected absence of an amenable lesion for histologic verification in all patients, a composite SOT was employed based on assessment performed or initiated within 60 days following ^18F-DCFPyL-PET/CT. These reference standards were defined (in descending priority) as (1) evaluable histopathology results from prostatectomy, salvage pelvic lymph node dissection or biopsy; (2) imaging findings using ^18F-fluciclovine or ^11C-choline PET, or focused MRI or CT; or (3) if neither of the above was available or informative, confirmed PSA response up to 9 months post-radiation initiation (with no concomitant ADT) of all PET-positive foci. PSA response was defined as PSA decline by ≥50% from baseline that was confirmed on repeat measurement within 4 weeks, based on central laboratory results.
A central imaging core laboratory was employed to independently manage image handling, reader training, reader sessions and data collection. […] The readers had no access to any clinical information, including PSA values or other imaging available for a patient. […]

[1] = SOT Correlative imaging n=100, Reader 1
[2] = SOT Correlative imaging n=100, Reader 2

O=C(O)CC[C@H](NC(=O)N[C@@H](CCCCNC(=O)c1ccc([18F])nc1)C(=O)O)C(=O)O [18F-DCFPyL, 2-(3-{1-carboxy-5-[(6-[^18F]fluoro-pyridine-3-carbonyl)-amino]-pentyl}ureido)-pentanedioic acid]
pts with PSMA-avid lesion(s), local radiology assessment (142/208): 69.3% | PPV by anatomic region (Extra-pelvic, Reader 1 (CONDOR Reader 4 in Table 17)): 33 (67.3) % | PPV by anatomic region (Extra-pelvic, Reader 1 (CONDOR Reader 4 in Table 17), listed as PyLARIFY): 67% | PPV by anatomic region (Extra-pelvic, Reader 2 (CONDOR Reader 5 in Table 17)): 31 (67.4) % | PPV by anatomic region (Extra-pelvic, Reader 2 (CONDOR Reader 5 in Table 17), listed as PyLARIFY): 67% | PPV by anatomic region (Extra-pelvic, Reader 3 (CONDOR Reader 6 in Table 17)): 30 (69.8) % | PPV by anatomic region (Extra-pelvic, Reader 3 (CONDOR Reader 6 in Table 17), listed as PyLARIFY): 70% | CLR by baseline PSA (PSA 0.5-<1.0 ng/mL, Reader 1): 12 (75.0) % | Detection rate by baseline PSA (PSA 0.5-<1.0 ng/mL, Reader 1): 21 (56.8) % | CLR by baseline PSA (PSA 0.5-<1.0 ng/mL, Reader 2): 10 (76.9) % | Detection rate by baseline PSA (PSA 0.5-<1.0 ng/mL, Reader 2): 45.9% | CLR by baseline PSA (PSA 0.5-<1.0 ng/mL, Reader 3): 11 (73.3) % | Detection rate by baseline PSA (PSA 0.5-<1.0 ng/mL, Reader 3): 19 (51.4) % | CLR by baseline PSA (PSA 1.0-<2.0 ng/mL, Reader 1): 17 (85.0) % | Detection rate by baseline PSA (PSA 1.0-<2.0 ng/mL, Reader 1): 24 (72.7) % | CLR by baseline PSA (PSA 1.0-<2.0 ng/mL, Reader 2): 14 (77.8) % | Detection rate by baseline PSA (PSA 1.0-<2.0 ng/mL, Reader 2): 22 (66.7) % | CLR by baseline PSA (PSA 1.0-<2.0 ng/mL, Reader 3): 15 (83.3) % | Detection rate by baseline PSA (PSA 1.0-<2.0 ng/mL, Reader 3): 19 (57.6) % | CLR by baseline PSA (PSA 2.0 < 5.0 ng/mL, Reader 1): 21 (91.3) % | Detection rate by baseline PSA (PSA 2.0 < 5.0 ng/mL, Reader 1): 28 (84.8) % | CLR by baseline PSA (PSA 2.0 < 5.0 ng/mL, Reader 2): 24 (92.3) % | Detection rate by baseline PSA (PSA 2.0 < 5.0 ng/mL, Reader 2): 29 (87.9) % | CLR by baseline PSA (PSA 2.0 < 5.0 ng/mL, Reader 3): 20 (90.9) % | Detection rate by baseline PSA (PSA 2.0 < 5.0 ng/mL, Reader 3): 27 (81.8) % | CLR by baseline PSA (PSA <0.5 ng/mL, Reader 1): 11 (73.3) % | Detection rate by baseline PSA (PSA <0.5 ng/mL, Reader 1): 29 (42.0) % | CLR by baseline PSA (PSA <0.5 ng/mL, Reader 2): 76.9% | Detection rate by baseline PSA (PSA <0.5 ng/mL, Reader 2): 23 (33.3) % | CLR by baseline PSA (PSA <0.5 ng/mL, Reader 3): 11 (73.3) % | Detection rate by baseline PSA (PSA <0.5 ng/mL, Reader 3): 25 (36.2) % | CLR by baseline PSA (PSA ≥5 ng/mL, Reader 1): 27 (96.4) % | Detection rate by baseline PSA (PSA ≥5 ng/mL, Reader 1): 29 (96.7) % | CLR by baseline PSA (PSA ≥5 ng/mL, Reader 2): 28 (96.6) % | Detection rate by baseline PSA (PSA ≥5 ng/mL, Reader 2): 29 (96.7) % | CLR by baseline PSA (PSA ≥5 ng/mL, Reader 3): 26 (96.3) % | Detection rate by baseline PSA (PSA ≥5 ng/mL, Reader 3): 27 (90.0) % | PPV by anatomic region (Pelvic, Reader 1 (CONDOR Reader 4 in Table 17)): 41 (67.2) % | PPV by anatomic region (Pelvic, Reader 1 (CONDOR Reader 4 in Table 17), listed as PyLARIFY): 67% | PPV by anatomic region (Pelvic, Reader 2 (CONDOR Reader 5 in Table 17)): 40 (72.7) % | PPV by anatomic region (Pelvic, Reader 2 (CONDOR Reader 5 in Table 17), listed as PyLARIFY): 73% | PPV by anatomic region (Pelvic, Reader 3 (CONDOR Reader 6 in Table 17)): 39 (70.9) % | PPV by anatomic region (Pelvic, Reader 3 (CONDOR Reader 6 in Table 17), listed as PyLARIFY): 71% | PPV by anatomic region (Prostatic (prostate bed), Reader 1 (CONDOR Reader 4 in Table 17), listed as PyLARIFY): 80% | PPV by anatomic region (Prostatic (prostate bed), Reader 2 (CONDOR Reader 5 in Table 17)): 30 (83.3) % | PPV by anatomic region (Prostatic (prostate bed), Reader 2 (CONDOR Reader 5 in Table 17), listed as PyLARIFY): 83% | PPV by anatomic region (Prostatic (prostate bed), Reader 3 (CONDOR Reader 6 in Table 17)): 27 (75.0) % | PPV by anatomic region (Prostatic (prostate bed), Reader 3 (CONDOR Reader 6 in Table 17), listed as PyLARIFY): 75% | CLR (TP/TP + FP) (SOT CT n=6, Reader 1): (80.0%) | Negative PyL Scan (SOT CT n=6, Reader 1): (16.7%) | Positive PyL Scan (SOT CT n=6, Reader 1): (83.3%) | CLR (TP/TP + FP) (SOT CT n=6, Reader 2): (100.0%) | Negative PyL Scan (SOT CT n=6, Reader 2): (16.7%) | Positive PyL Scan (SOT CT n=6, Reader 2): (83.3%) | CLR (TP/TP + FP) (SOT CT n=6, Reader 3): (80.0%) | Negative PyL Scan (SOT CT n=6, Reader 3): (16.7%) | Positive PyL Scan (SOT CT n=6, Reader 3): (83.3%) | CLR (TP/TP + FP) [1]: (88.0%) | Negative PyL Scan [1]: (18.0%) | PPV (TP/TP + FP) [1]: (89.0%) | Positive PyL Scan [1]: (82.0%) | CLR (TP/TP + FP) [2]: (88.6%) | Negative PyL Scan [2]: (24.0%) | PPV (TP/TP + FP) [2]: (89.5%) | Positive PyL Scan [2]: (76.0%)
